Where a name gives a salt, the structure may show the parent alone. Read-outs that look alike come from different tables or passages of the source.
System: P. mirabilis 889
Assay: MIC, antibacterial activity
Type: cell-based
Settings: Proteus mirabilis

MIC (strain P. mirabilis 889, read-out: MIC against P. mirabilis 889) [µg/mL]	SMILES	MIC (889, strain number not given, read-out: MIC against P.mirabilis) [µg/mL]
0.12	CCN1CCN(C(=O)N[C@@H](C(=O)N[C@]2(NC=O)C(=O)N3C(C(=O)O)=C(CSc4nnnn4CC(N)=O)CS[C@@H]32)c2ccccc2)C(=O)C1=O [Example 13, 3-[1-carbamoylmethyl-1H-tetrazol-5-yl)thiomethyl]-7β-[2-[(4-ethyl-2,3-dioxopiperazin-1-yl)-carbonylamino]-2-phenyl-acetamido]-7a-formamidoceph-3-em-4-carboxylic acid, sodium salt]	–
–	CCN1CCN(C(=O)N[C@@H](C(=O)N[C@]2(NC=O)C(=O)N3C(C(=O)O)=C(CSc4nnnn4CC(N)=O)CS[C@@H]32)c2ccc(OC(C)=O)c(OC(C)=O)c2)C(=O)C1=O [Example 14, Sodium 3-[(1-carbamoylmethyl-1H-tetrazol-5-yl)thiomethyl]-7β-[D-2-(3,4-diacetoxyphenyl)-2-[(4-ethyl-2,3-dioxopiperazin-1-yl)carbonylamino]acetamido)-7α-formamidoceph-3-em-4-carboxylate]	0.12

Reference: patent publication EP0114750A2, “Beta-lactam antibacterial agents” (BEECHAM GROUP PLC, priority 1983, dated 1984)
